Test results taken from ChEMBL document CHEMBL2029199, “Pyrazole and pyrimidine phenylacylsulfonamides as dual Bcl-2/Bcl-xL antagonists” (Bioorg Med Chem Lett, 2012).
pIC50: −log10 of the molar value. Calls of active or inactive are those of the source. The rule behind the calls is not given here.

Columns and labels:
[1] = target: Apoptosis regulator Bcl-2 (Homo sapiens, UniProt P10415); assay: Inhibition of GST-tagged Bcl2 using [FAM]-IWIAQELRRIGDEFNAYY-NH2 as substrate after 60 mins by fluorescence polarization assay
Chain of Apoptosis regulator Bcl-2 (P10415 whole entry): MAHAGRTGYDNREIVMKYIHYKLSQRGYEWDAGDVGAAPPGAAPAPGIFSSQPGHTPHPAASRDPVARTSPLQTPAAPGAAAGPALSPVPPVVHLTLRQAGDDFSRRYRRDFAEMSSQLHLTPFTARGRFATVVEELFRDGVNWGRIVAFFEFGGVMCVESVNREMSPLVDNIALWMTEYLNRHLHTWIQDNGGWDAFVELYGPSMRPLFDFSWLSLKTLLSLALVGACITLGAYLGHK

Bcl-2-like protein 1 = Bcl-2-like protein 1 (Homo sapiens, UniProt Q07817); assay: Inhibition of biotin-labelled Bcl-xL using [FAM]-IWIAQELRRIGDEFNAYY-NH2 as substrate after 60 mins by FRET analysis
Chain of Bcl-2-like protein 1 (Q07817 whole entry): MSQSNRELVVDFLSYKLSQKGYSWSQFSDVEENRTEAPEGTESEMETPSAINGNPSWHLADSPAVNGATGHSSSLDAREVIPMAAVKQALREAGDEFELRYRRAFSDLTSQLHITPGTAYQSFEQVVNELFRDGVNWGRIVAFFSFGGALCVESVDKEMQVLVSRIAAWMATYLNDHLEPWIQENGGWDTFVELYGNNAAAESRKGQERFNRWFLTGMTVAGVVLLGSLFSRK

[2] = Cytotoxicity against human SU-DHL4 cells after 72 hrs by firefly luciferase-based assay in presence of 2% fetal calf serum; format: functional, cell-based, SUD4; details: SU-DHL-4, 72 h
MV4-11 [3] = assay: Cytotoxicity against human MV411 cells after 72 hrs by firefly luciferase-based assay in presence of 2% fetal calf serum; format: functional, cell-based; details: MV4-11, 72 h
MV4-11 [4] = assay: Cytotoxicity against human MV411 cells after 72 hrs by firefly luciferase-based assay in presence of 10% fetal calf serum; format: functional, cell-based; details: MV4-11, 72 h
MV4-11 [5] = assay: Induction of cytochrome C release in mitochondria isolated from human MV411 cells after 40 mins by Western blotting analysis; format: functional
MV4-11 [6] = assay: Induction of BAK oligomerization in mitochondria isolated from human MV411 cells after 40 mins by Western blotting analysis; format: functional
MV4-11 [7] = assay: Induction of mitochondria depolarization in human MV411 cells at 3 uM after 7 hrs by flow cytometry; format: functional
MV4-11 [8] = assay: Induction of cytochrome C release in mitochondria isolated from human MV411 cells at 0.1 uM after 40 mins by Western blotting analysis; format: functional
MV4-11 [9] = assay: Induction of BAK oligomerization in mitochondria isolated from human MV411 cells at 0.1 uM after 40 mins by Western blotting analysis; format: functional
MV4-11 [10] = assay: Induction of BAK oligomerization in mitochondria isolated from human MV411 cells at 1 uM after 40 mins by Western blotting analysis; format: functional

| Compound | pIC50 [1] | pIC50 (Bcl-2-like protein 1) | other results |
| --- | --- | --- | --- |
| CCCCN(CCCC)c1nccc(-c2ccc(C(=O)NS(=O)(=O)c3ccc4ccccc4c3)cc2C(=O)N2Cc3ccccc3C[C@H]2CN)n1 | 6.37 | 6.80 | – |
| CCCCN(CCCC)c1nccc(-c2ccc(C(=O)NS(=O)(=O)c3ccc4c(c3)CCN4Cc3ccc(Cl)c(Cl)c3)cc2C(=O)N2CCc3ccccc3C2)n1 | 6.92 | 6.15 | – |
| CCCCc1c(-c2ccc(C(=O)NS(=O)(=O)c3ccc4ccccc4c3)cc2C(=O)N2CCc3ccccc3C2)c(C(=O)O)nn1-c1ccccc1 | 6.77 | 7.52 | – |
| CCCCc1c(-c2ccc(C(=O)NS(=O)(=O)c3ccc4ccccc4c3)cc2C(=O)N2CCc3ccccc3C2)c(CO)nn1-c1ccc(Oc2ccccc2)cc1 | – | 7.46 | – |
| CCCCc1c(-c2ccc(C(=O)NS(=O)(=O)CC[Si](C)(C)C)cc2C(=O)N2CCc3ccccc3C2)c(CO)nn1-c1ccccc1 | 6.72 | – | – |
| CCCN(CCC)c1ncc(Cl)c(-c2ccc(C(=O)NS(=O)(=O)c3ccc4cccc(Cl)c4c3)cc2C(=O)N2Cc3ccccc3C[C@H]2CN)n1 | 7.82 | 7.85 | pIC50 [2]: 5.18; pIC50 (MV4-11 [3]): 6.48; pIC50 (MV4-11 [4]): 6.14; Activity (MV4-11 [5]): Dose-dependent effect; Activity (MV4-11 [6]): Dose-dependent effect; Activity (MV4-11 [7]): 25% |
| CCCCc1c(-c2ccc(C(=O)NS(=O)(=O)c3ccc4ccccc4c3)cc2C(=O)N2CCc3ccccc3C2)c(CO)nn1-c1ccc(Oc2cccc(Cl)c2)cc1 | 8.10 | 7.74 | pIC50 [2]: 5.63; pIC50 (MV4-11 [3]): 6.15; Activity (MV4-11 [8]): Active; Activity (MV4-11 [9]): Active; Activity (MV4-11 [7]): 25% |
| CCCCc1c(-c2ccc(C(=O)NS(=O)(=O)c3ccc4ccccc4c3)cc2C(=O)N2CCc3ccccc3C2)c(CO)nn1-c1ccc(CCO)cc1 | – | 8.22 | – |
| CCCCc1c(-c2ccc(C(=O)NS(=O)(=O)c3ccc4ccccc4c3)cc2C(=O)N2CCc3ccccc3C2)c(C(=O)OCC)nn1-c1cccc(Oc2ccccc2)c1 | 6.85 | 6.33 | – |
| CCCCc1c(-c2ccc(C(=O)NS(=O)(=O)c3ccc4ccccc4c3)cc2C(=O)N2CCc3ccccc3C2)c(C(=O)OCC)nn1-c1ccccc1 | 6.18 | 7.38 | – |
| CCCCc1c(-c2ccc(C(=O)NS(=O)(=O)c3ccc4ccccc4c3)cc2C(=O)N2Cc3ccccc3C[C@H]2CO)c(CO)nn1-c1ccccc1 | 7.96 | – | – |
| CCCCCS(=O)(=O)NC(=O)c1ccc(-c2c(CO)nn(-c3ccc(Oc4cccc(Cl)c4)cc3)c2CCCC)c(C(=O)N2CCc3ccccc3C2)c1 | 7.19 | 6.92 | – |
| CCCCc1c(-c2ccc(C(=O)NS(=O)(=O)CC)cc2C(=O)N2CCc3ccccc3C2)c(CO)nn1-c1ccc(Oc2cccc(Cl)c2)cc1 | 6.72 | 6.85 | – |
| CCCCN(CCCC)c1nccc(-c2ccc(C(=O)NS(=O)(=O)c3ccc4cccc(Cl)c4c3)cc2C(=O)N2Cc3ccccc3C[C@H]2CO)n1 | 6.80 | 6.89 | – |
| CCCN(CCC)c1ncc(Cl)c(-c2ccc(C(=O)NS(=O)(=O)c3ccc4cccc(Cl)c4c3)cc2C(=O)N2Cc3ccccc3C[C@H]2CO)n1 | 8.05 | 8.05 | pIC50 [2]: 5.42; pIC50 (MV4-11 [3]): 6.48; Activity (MV4-11 [5]): Dose-dependent effect; Activity (MV4-11 [6]): Dose-dependent effect; Activity (MV4-11 [7]): 25% |
| CCCCc1c(-c2ccc(C(=O)NS(=O)(=O)c3ccc4ccccc4c3)cc2C(=O)N2CCc3ccccc3C2)c(C(=O)OCC)nn1-c1ccc(OC)cc1 | 5.75 | 7.32 | – |

| Compound | pIC50 [1] | pIC50 (Bcl-2-like protein 1) | other results |
| --- | --- | --- | --- |
| CCCCc1c(-c2ccc(C(=O)NS(=O)(=O)c3ccc4ccccc4c3)cc2C(=O)N2CCc3ccccc3C2)c(CO)nn1-c1ccc(Oc2ccc(Cl)cc2)cc1 | 7.66 | 7.46 | – |
| CCCCN(CCCC)c1nccc(-c2ccc(C(=O)NS(=O)(=O)c3ccc4ccccc4c3)cc2C(=O)N2CCc3ccccc3C2)n1 | 6.15 | 6.30 | – |
| CCCCc1c(-c2ccc(C(=O)NS(=O)(=O)c3ccc4ccccc4c3)cc2C(=O)N2CCc3ccccc3C2)c(CO)nn1-c1ccccc1 | 7.21 | 7.96 | – |
| CCCCc1c(-c2ccc(C(=O)NS(=O)(=O)c3ccc4ccccc4c3)cc2C(=O)N2CCc3ccccc3C2)c(CO)nn1-c1cccc(CO)c1 | 7.15 | 7.82 | pIC50 [2]: < 5.00; pIC50 (MV4-11 [3]): 5.30; Activity (MV4-11 [8]): Active; Activity (MV4-11 [9]): Active |
| CCCN(CCC)c1nccc(-c2ccc(C(=O)NS(=O)(=O)c3ccc4ccccc4c3)cc2C(=O)N2CCc3ccccc3C2)n1 | 6.82 | 6.60 | Activity (MV4-11 [10]): inactive |
| CCCCOc1ccc(-n2nc(CO)c(-c3ccc(C(=O)NS(=O)(=O)c4ccc5ccccc5c4)cc3C(=O)N3CCc4ccccc4C3)c2CCCC)cc1 | 7.35 | 7.59 | pIC50 [2]: 5.60; pIC50 (MV4-11 [3]): 5.84 |
| CCCCc1c(-c2ccc(C(=O)NS(=O)(=O)c3ccc4ccccc4c3)cc2C(=O)N2Cc3ccccc3C[C@H]2CN)c(CO)nn1-c1ccccc1 | 7.62 | 8.15 | – |
| CCCCc1c(-c2ccc(C(=O)NS(=O)(=O)c3ccc4ccccc4c3)cc2C(=O)N2CCc3ccccc3C2)c(CO)nn1-c1ccc(CCCO)cc1 | 7.85 | 8.15 | – |
| CCOC(=O)c1nn(-c2ccccc2)c(C)c1-c1ccc(C(=O)NS(=O)(=O)c2ccc3ccccc3c2)cc1C(=O)N1CCc2ccccc2C1 | 5.38 | 6.19 | – |
| CCCCN(CCCC)c1ncc(Cl)c(-c2ccc(C(=O)NS(=O)(=O)c3ccc4ccccc4c3)cc2C(=O)N2CCc3ccccc3C2)n1 | 6.80 | 6.64 | – |
| CCCCc1c(-c2ccc(C(=O)NS(=O)(=O)c3ccc4cccc(Cl)c4c3)cc2C(=O)N2CCc3ccccc3C2)c(CO)nn1-c1ccc(Oc2cccc(Cl)c2)cc1 | 8.22 | 7.82 | pIC50 [2]: 5.69; pIC50 (MV4-11 [3]): 6.24 |
| CCCCN(CCCC)c1ncc(C)c(-c2ccc(C(=O)NS(=O)(=O)c3ccc4ccccc4c3)cc2C(=O)N2CCc3ccccc3C2)n1 | 6.96 | 6.92 | – |
| CCCCc1c(-c2ccc(C(=O)NS(=O)(=O)c3ccc4ccccc4c3)cc2C(=O)N2CCc3ccccc3C2)c(C(=O)OCC)nn1-c1ccc(Oc2ccccc2)cc1 | – | 7.26 | – |
| CCCCN(CCCC)c1nccc(-c2ccc(C(=O)NS(=O)(=O)c3ccc4cccc(Cl)c4c3)cc2C(=O)N2CCc3ccccc3C2)n1 | 6.92 | 6.32 | – |
| CCCCc1c(-c2ccc(C(=O)NS(=O)(=O)c3ccc4ccccc4c3)cc2C(=O)N2CCc3ccccc3C2)c(CO)nn1-c1ccc(-c2ccccc2)cc1 | 8.15 | 7.89 | – |
| CCCCN(CCCC)c1nccc(-c2ccc(C(=O)NS(=O)(=O)c3ccc4ccc(I)cc4c3)cc2C(=O)N2CCc3ccccc3C2)n1 | 6.85 | 6.01 | – |
